Key:
[1] = system: TCF/LEF luciferase reporter; experiment: High-throughput screen validation, TCF/LEF luciferase reporter in osteosarcoma cell line; assay type: cell-based
Experimental: Osteosarcoma cells were plated in a 96 well plate. The cells were transiently transfected with the TCF/LEF luciferase reporter using LipofectAMINE PLUS (Invitrogen; Carlsbad, Calif.). The cells were incubated overnight at 37° C. in OptiMEM-1 serum-free medium with the transfection reagents. The cells were washed and serum-containing medium was added to the cells for 8 hours. The serum-containing medium was replaced with serum-free medium and the cells were stimulated overnight with PTH and WNT3a. Supernatant from the stimulated cells was collected for detection of osteosclerostin, and the cells were subjected to a luciferase assay as previously described (Wan et al., Am. J. Pathol. 166:1379-92 (2005)).
To determine agonists and antagonists of the additive signaling of the PTH receptor and the WNT receptor, (as well as any co-receptors) in bone cells, a high-throughput screen is designed. […] An osteosarcoma cell line is transiently transfected with a TCF/LEF luciferase reporter. The cells are treated with WNT3a and PTH and luciferase activity is determined (FIG. 46).

axin1 = experiment: Axin1 recruitment to cell membrane, cell fractionation assay in mouse primary preosteoblasts; assay type: cell-based
Experimental: Osteoblasts were isolated by digestion of calvaria of newborn mice as described (Wang et al., J. Clin. Invest. 117:1616-26 (2007)). Briefly, calvaria were incubated with 10 ml of digestion solution containing 1.8 mg/ml of collagenase type I (Worthington Biochemical Corp.; Lakewood, N.J.) for 15 minutes at 37° C. under constant agitation. The supernatant was then harvested, replaced with fresh collagenase and the digestion repeated an additional 4 times. Digestion solutions containing the osteoblasts were pooled together. After centrifugation, osteoblasts were obtained and cultured in α-Minimal Essential Media (MEM) containing 10% FBS and 1% penicillin/streptomycin at 37° C. in a humidified incubator supplied with 5% CO2.
Cells were harvested in cavitation buffer (5 mM HEPES, pH 7.4, 3 mM MgCl2, 1 mM EGTA, 250 mM sucrose) containing protease and phosphatase inhibitors and homogenized by nitrogen cavitation (200 p.s.i., for 5 minutes) in a cell disruption bomb (Parr Instrument Co.; Moline, Ill.). The cell homogenate was centrifuged twice at 700 g for 10 minutes to pellet the nuclei. The supernatant was further centrifuged at 100,000 g (Beckman SW50.1 rotor) for 1 hour to separate the membrane and cytosol fractions, and the resulting membrane pellet was washed three times with cavitation buffer before use in the assays (Zhang et al., Biochem. J. 343:541-9 (1999)). […]

Xenopus = experiment: LRP6-mediated secondary axis induction in Xenopus embryos; assay type: in vivo; conditions: ventral injection of PTH and PTH1R RNA with LRP6 RNA
Description: RNAs for microinjection were synthesized using SP6 mMessage mMachine in vitro transcription kit (Ambion; Austin, Tex.). […] The doses of RNAs used were: 200 pg LRP6, 2 pg PTH and 50 pg PTH1R.

CFP-PTH1R and YFP-LRP6 = target: T1, CFP-PTH1R and YFP-LRP6 (Homo sapiens, UniProt Q03431); experiment: Photobleaching-based FRET of CFP-PTH1R and YFP-LRP6 in HEK293 cells; assay type: cell-based
T1 construct: expressed in transfected cells; host or cells: HEK293
T1 sequence (Q03431 27-593): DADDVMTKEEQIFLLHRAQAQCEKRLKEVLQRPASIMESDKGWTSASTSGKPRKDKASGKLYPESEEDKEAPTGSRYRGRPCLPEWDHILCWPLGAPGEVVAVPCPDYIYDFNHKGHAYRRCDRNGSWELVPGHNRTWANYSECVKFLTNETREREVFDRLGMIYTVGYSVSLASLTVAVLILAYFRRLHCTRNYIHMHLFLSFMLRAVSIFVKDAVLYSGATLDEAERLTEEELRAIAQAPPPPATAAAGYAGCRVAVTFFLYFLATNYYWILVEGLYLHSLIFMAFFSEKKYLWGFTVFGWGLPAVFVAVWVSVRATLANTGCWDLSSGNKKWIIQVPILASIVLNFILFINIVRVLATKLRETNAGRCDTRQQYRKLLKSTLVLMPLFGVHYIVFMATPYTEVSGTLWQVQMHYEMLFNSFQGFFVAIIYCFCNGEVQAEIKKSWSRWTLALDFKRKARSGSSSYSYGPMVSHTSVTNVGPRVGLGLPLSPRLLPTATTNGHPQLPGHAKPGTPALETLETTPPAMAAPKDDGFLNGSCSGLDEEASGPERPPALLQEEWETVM
Description: PTH1R and BMPRII cDNAs were cloned into ECFP-N1, and LRP6 and mLRP4T100 cDNAs were cloned into EYFP—N1 (Clonetech; Palo Alto, Calif.) expression vectors. These vectors were modified by site-directed mutagenesis that prevents the self-dimerization (Bhatia et al., Proc. Natl. Acad. Sci. USA 102:15569-74 (2005)). CFP and YFP were fused at the C-termini of the receptors. Because CFP-PTH1R or CFP-BMPRII (the fluorescent FRET donors) is quenched when in the proximity of YFP-LRP6 or YFP-mLRP4T100 (the acceptors), FRET efficiency can be measured by comparing donor fluorescence pre- and post-photobleaching of the acceptor. […] HEK293 cells on coverslips in 35 mm dishes were cotransfected with 0.1 μg of each plasmid. Cells were observed using Leica TCS SP II AOBS laser-scanning confocal microscope. An excitation wavelength of 405 nm and an emission range of 416-492 nm, and an excitation wavelength of 514 nm and an emission range of 525-600 nm were used to acquire images of CFP and YFP, respectively. YFP was photobleached by using full power of the 514 nm line for 1-2 minutes. An image of CFP and YFP fluorescence after photobleaching was obtained by using the respective filter sets. Images were representatives of three experiments. The FRET efficiencies were calculated according to: FRET eff %=[(Donorpost−Donorpre)/(Donorpost)]

β-catenin [2] = experiment: Western blot of cytosolic β-catenin in UMR-106 cells; assay type: cell-based, rat
Experimental: (§1) Cells were harvested in cavitation buffer (5 mM HEPES, pH 7.4, 3 mM MgCl2, 1 mM EGTA, 250 mM sucrose) containing protease and phosphatase inhibitors and homogenized by nitrogen cavitation (200 p.s.i., for 5 minutes) in a cell disruption bomb (Parr Instrument Co.; Moline, Ill.). The cell homogenate was centrifuged twice at 700 g for 10 minutes to pellet the nuclei. The supernatant was further centrifuged at 100,000 g (Beckman SW50.1 rotor) for 1 hour to separate the membrane and cytosol fractions, and the resulting membrane pellet was washed three times with cavitation buffer before use in the assays (Zhang et al., Biochem. J. 343:541-9 (1999)). Immunoprecipitation and Western blot analysis of cell lysates were performed as described previously (Wan et al., Am. J. Pathol. 166:1379-92 (2005)).

β-catenin [3] = experiment: Western blot of cytosolic β-catenin in HEK 293 cells; assay type: cell-based; conditions: HEK 293 cells; concentration- and time-dependent
Experimental: as §1

FRET efficiency between CFP-PTH1R and YFP-LRP6 (CFP-PTH1R and YFP-LRP6): increased | FRET efficiency in control pairs YFP-LRP6/CFP-BMPRII and CFP-PTH1R/YFP-mLRP4T100 (CFP-PTH1R and YFP-LRP6): did not enhance the FRET efficiency
Substance: Parathyroid hormone [PTH]
stimulation of the TCF/LEF luciferase reporter, treatment alone ([1]; 96-well plate): does not stimulate | effect on WNT stimulation of the TCF/LEF luciferase reporter ([1]; PTH and WNT3a treatment): potentiates | axin1 level on cell membrane (axin1): increased | LRP6-induced secondary axis induction (Xenopus): enhanced | abundance of β-catenin in the cytosol (β-catenin [2]): enhanced | levels of β-catenin in the cytosol (β-catenin [3]): enhanced

— patent US20110256557A1, “IDENTIFYING PARATHYROID HORMONE AGONISTS AND ANTAGONISTS” (DISCOVERYBIOMED, INC., priority 2008, published 2011)
